Source: patent US8349862B2, “Pyridine derivatives for the treatment of metabolic disorders related to insulin resistance or hyperglycemia” (Piramal Healthcare Limited, priority 2006, dated 2013)
“And” between values parts separate entries of the source, which are not always exact repeats. Identical values can stand only once.

Key:
[1] = system: insulin resistant adipocytes (differentiated 3T3 L1 fibroblasts); test: In vitro model exhibiting insulin resistance: 14C-2-deoxyglucose uptake in dexamethasone-treated adipocytes; type: cell-based; details: test compound 10 μM/mL, Rosiglitazone 0.1 μM; for Fold Vehicle (fold activity over vehicle, glucose uptake): vehicle = 1.0, cut off for activity 1.50 fold
Description: The assay was designed as in reference, British Journal of Pharmacology, 130, 351-58, 2000, the disclosure of which is incorporated by reference for the teaching of the assay. The solution of test compound (10 μM/mL) was prepared in DMSO. […] Differentiation into adipocytes was induced by known methods as described below. (J. Biol. […] 3T3 L1 fibroblasts were seeded in 24- or 6-well plates at a density of 0.5-2×10^4 cells/well and were allowed to reach maximal confluency. The confluent fibroblasts were exposed to culture medium for 2 days. […] The mature adipocytes were exposed to dexamethasone, 100 nM added in ethanol, in culture medium and incubated for 2 days. […] The test compound was also present during this period. After 3-4 hours, the medium was aspirated and replaced with Kreb's Ringer phosphate (KRP) buffer at pH 7.4 and with human/porcine insulin, 200 nM. The cells were incubated for 30 minutes at 37° C. […] After exactly 5 minutes, the plates were transferred to ice trays and medium was rapidly aspirated. The cell layer was washed twice with ice-cold phosphate buffered saline, (PBS), pH 7.4. […] Non-specific glucose uptake was assayed in wells exposed to cytochalasin B, inhibitor of glucose transport. […] Statistical analysis was performed using unpaired t-test.

Human PPARγ = molecular target: T1, Human PPARγ (Homo sapiens, UniProt P37231); test: Human PPARγ transactivation assay (luciferase reporter, HEK293 cells); type: cell-based
T1 construct: Human full length PPARγ cDNA was cloned into pSG5 expression vector; expressed in transfected cells; host or cells: HEK293
T1 sequence (P37231 1-505): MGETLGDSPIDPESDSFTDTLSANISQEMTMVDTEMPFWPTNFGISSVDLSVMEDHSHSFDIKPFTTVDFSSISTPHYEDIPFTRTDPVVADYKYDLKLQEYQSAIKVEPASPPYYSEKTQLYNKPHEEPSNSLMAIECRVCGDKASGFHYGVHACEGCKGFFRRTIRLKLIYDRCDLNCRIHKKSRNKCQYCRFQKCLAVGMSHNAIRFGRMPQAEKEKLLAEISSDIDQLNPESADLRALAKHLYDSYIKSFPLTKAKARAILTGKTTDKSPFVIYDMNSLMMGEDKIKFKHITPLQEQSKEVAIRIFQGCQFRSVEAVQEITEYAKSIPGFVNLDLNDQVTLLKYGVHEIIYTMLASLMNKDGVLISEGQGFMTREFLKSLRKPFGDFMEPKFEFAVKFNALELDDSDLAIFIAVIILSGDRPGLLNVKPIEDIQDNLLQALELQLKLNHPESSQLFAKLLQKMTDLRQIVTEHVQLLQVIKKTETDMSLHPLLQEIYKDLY
Description: The assay was designed as in the reference, Biochem. Biophys. Res. Comm. 175:865-871, 1991, the disclosure of which is incorporated by reference for the teaching of the assay.
Human PPARγ activity was evaluated by transactivation using a luciferase reporter gene. […] Human full length PPARγ cDNA was cloned into pSG5 expression vector (Stratagene, Lo Jolla, Calif.).
HEK293 cells were seeded in 24 well plates and grown in DMEM supplemented with 10% (v/v) FCS. After 24 hours, they were transfected with 100 ng of hPPARγ receptor and 300 ng of AOX-3×PPRE-LUC reporter construct per well using Fugen 6 transfection reagent (Roche, Indianapolis, Ind.). […] The control was 0.1% DMSO. After 48 hours, transactivation activity was determined by luciferase assay using Steady Glow reagent (Promega, Madison, Wis.).

Mouse PPARγ = molecular target: T2, Mouse PPARγ (Mus musculus, UniProt P37238); test: Mouse PPARγ assay (TransAM PPARγ ELISA, 3T3-L1 fibroblasts); type: cell-based; details: 72 hrs, Compound 1 50 μM, Rosiglitazone 10 μM
T2 construct: endogenous in cells; host or cells: 3T3-L1 fibroblasts
T2 sequence (P37238 1-505): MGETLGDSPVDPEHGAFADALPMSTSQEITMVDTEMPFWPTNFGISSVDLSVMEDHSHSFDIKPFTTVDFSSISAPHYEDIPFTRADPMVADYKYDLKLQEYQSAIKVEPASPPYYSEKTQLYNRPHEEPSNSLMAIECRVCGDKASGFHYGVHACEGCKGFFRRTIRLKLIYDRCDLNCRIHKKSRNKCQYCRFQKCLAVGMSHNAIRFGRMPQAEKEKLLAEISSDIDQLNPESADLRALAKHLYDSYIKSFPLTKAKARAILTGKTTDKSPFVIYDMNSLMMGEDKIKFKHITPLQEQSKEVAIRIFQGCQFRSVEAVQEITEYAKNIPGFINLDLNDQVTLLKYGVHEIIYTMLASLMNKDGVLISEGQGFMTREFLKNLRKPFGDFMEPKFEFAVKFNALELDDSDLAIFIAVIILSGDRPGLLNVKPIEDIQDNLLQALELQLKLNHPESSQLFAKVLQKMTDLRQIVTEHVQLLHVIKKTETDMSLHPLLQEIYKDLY
Description: The assay was designed as in the reference, Blood, 104(5), 1361-8, 2004, the disclosure of which is incorporated by reference for the teaching of the assay.
3T3-L1 fibroblasts were seeded in 6-well plates at a density of 4×10^4 cells/well and cultured in DMEM containing 10% calf serum. […] The plates were incubated for 72 hrs at 37° C. in a CO2 incubator with fresh medium containing test substances added after first 48 hrs. After 72 hrs, the medium was removed; the cell layer was washed and processed for the PPARγ assay as per the instruction of the manufacturer (Active Motif, North America, California, USA). PPARγ activation was determined using 96-well ELISA assay as per the instruction manual (TransAM PPARγ. Active Motif, Cat 0.40196).

[2] = system: genetically diabetic db/db BL/6J mice; test: Screening in db/db BL/6J mice: reduction of plasma glucose; type: in vivo; details: 10 days
Description: The protocol was designed as in references. • 1.
The screening of compounds was based on their ability to reduce the plasma glucose levels in genetically diabetic db/db BL/6J mice.
Male db/db mice (obtained from the Animal House of Nicholas Piramal Research Centre, Goregaon, Mumbai, India) were used for this study (body weight in the range of 30-40 g and age is 6-8 weeks) and were kept eight per cage in individually ventilated cages at controlled temperature (22±1° C.) and humidity (45±5%). Food and water were provided ad libitum during their laboratory stay, except for four hours fasting prior to blood sample collection. 12 hours light and dark cycle was followed during the whole study period.
After 4 hours fasting blood samples were collected from mice. Mice showing plasma glucose levels between 300 to 500 mg/dl were divided in groups (8-10 per group) such that the mean plasma glucose levels and variation within the group, for each group, is nearly the same. After grouping, mice in respective groups received treatment with 0.5% CMC vehicle, standard compound or test compounds for 10 days.
After 4 hours fasting, mice were anaesthetized using isoflurane (inhalation anesthetic), and blood samples were collected through the retro orbital plexus. Collected blood samples were centrifuged at 7000 rpm for 10 minutes at 4° C.; Separated plasma was used for estimation of plasma glucose using diagnostic kits (Diasys, Germany). Plasma glucose levels of treated groups were normalized with control group using the following formula, which accounted for the changes in control group.
Formula used for normalization was *: {1−(Ratio of mean plasma glucose levels of control group on day 10 to day 0)/(Ratio of plasma glucose levels of treated group on day 10 to day 0)}×100.

lean C57Bl6/J mice = test: Evaluation of antiobesity, acute study: food intake in fasted lean mice; type: in vivo; details: 100 mg/kg intraperitoneally, 2 hours after food introduction, p<0.001 vs vehicle
Excerpt: The effect of standard (Sibutramine), Compound 1 and Compound 11 on food intake in lean C57Bl6/J mice at 2, 4, 6 and 24 hrs post-food introductions is indicated.
The assay was designed as in reference, PCT publication WO 2003086306, the disclosure of which is incorporated by reference for the teaching of the assay.
Male C57Bl6/J mice, weighing 20-25 g, were housed individually in the animal facility. Water and Chow (Amrut Laboratory Animal feed, Sangli, Maharashtra, India) were available ad libitum. One day before the study, the animals were weighed and separated into treatment groups having similar average body weight. For the experiment, the animals were deprived of food overnight for 16 hours. They were dosed intraperitoneally with test compounds (100 mg/kg) or comparator standard (Sibutramine, 3 mg/kg) in saline vehicle (10 mL/kg). Half an hour after drug administration the animals were presented with a pre-weighed amount of food in the food cup. Food that remained in the cup was measured at various time points. The effect of standard, and test compounds on food intake in fasted lean C57Bl6/J mice at 2, 4, 6 and 24 hrs post-food introductions was evaluated. […] (*** p<0.001 vs vehicle treated controls) (b) Chronic Study

[3] = system: diet induced obese (DIO) C57Bl6/J mice; test: Evaluation of antiobesity, chronic study: diet induced obese mice; type: in vivo; details: 200 mg/kg intraperitoneally, 10 days of treatment
Description: Diet induced obese (DIO) mice were treated with either standard (Sibutramine) or Compound 1 for 10 days.
Cumulative body weight gain of diet induced obese (DIO) mice treated with either standard (Sibutramine) or Compound 1 for 10 days is indicated.
The assay was designed as in the reference, British Journal of Pharmacology, 132, 1898-1904, 2001, the disclosure of which is incorporated by reference for the teaching of the assay. Male C57Bl6/J mice (3-4 weeks of age) were housed in groups of 10 animals per cage in the animal facility. High fat diet (D12451 Research Diets Inc., New Brunswick, N.J. 08901, USA), 45% kcal from fat) and water were provided ad libitum for 14 weeks. After this period, the animals were housed individually in cages. The animals were weighed and separated into groups with similar body weight. They were acclimatized to the experimental procedures for 2 days Animals were dosed intraperitoneally with test compound (200 mg/kg) or the standard (Sibutramine, 3 mg/kg) in 10 ml/kg of 0.5% CMC vehicle between 10:00 h-12:00 h. After drug administration the animals were presented with a pre-weighed amount of food in the food cup. Weight of feed remaining in the cup and body weight were recorded daily just prior to dosing. The change in weight and cumulative food intake were computed. The results are indicated in FIG. 2 and FIG. 3. • Conclusions: 1. […]

Structure (SMILES)	% of Rosiglitazone (comparison with Rosiglitazone, glucose uptake) [1]	Fold Vehicle (fold activity over vehicle, glucose uptake) [1]	other results
CC(=O)N1CCN(c2ccc(Oc3ncc(NS(=O)(=O)c4ccc(Cl)cc4Cl)cc3Cl)cc2)CC1 [Compound 1, N-(6-(4-(4-Acetylpiperazin-1-yl)phenoxy)-5-chloropyridin-3-yl)-2,4-dichlorobenzene-sulfonamide]	61.4%	2.10 ± 0.05	PPARγ activity (% of rosiglitazone) (Human PPARγ): 6.4 % of rosiglitazone; PPARγ activity (% of rosiglitazone) (Mouse PPARγ): 5.1 % of rosiglitazone; Normalization with control (plasma glucose reduction) ([2]; 100 mpk bid): 46.07 ± 4.55; Inhibition of food intake (lean C57Bl6/J mice): effective in inhibiting food intake; Cumulative body weight gain [3]: effective in reducing cumulative body weight gain; Cumulative food intake [3]: effective in reducing cumulative food intake; melting point: 215 to 216 °C
COc1ccc(OC)c(S(=O)(=O)Nc2cnc(Oc3ccc(N4CCN(C(C)=O)CC4)cc3)c(Cl)c2)c1 [Compound 4, N-(6-(4-(4-Acetylpiperazin-1-yl)phenoxy)-5-chloropyridin-3-yl)-2,5-dimethoxy-benzenesulfonamide]	41.33%	1.55 ± 0.03	
CC(=O)N1CCN(c2ccc(Oc3ncc(NS(=O)(=O)c4ccc(C(F)(F)F)cc4Cl)cc3Cl)cc2)CC1 [Compound 5, N-(6-(4-(4-Acetylpiperazin-1-yl)phenoxy)-5-chloropyridin-3-yl)-2-chloro-4-(trifluoromethyl)benzenesulfonamide]	63.94%	1.85 ± 0.04	
CC(=O)N1CCN(c2ccc(Oc3ncc(NS(=O)(=O)c4ccc(Cl)c(Cl)c4)cc3Cl)cc2)CC1 [Compound 6, N-(6-(4-(4-Acetylpiperazin-1-yl)phenoxy)-5-chloropyridin-3-yl)-3,4-dichlorobenzene-sulfonamide]	69.76%	1.93 ± 0.06	
O=S(=O)(Nc1cnc(Oc2ccc(N3CCNCC3)cc2)c(Cl)c1)c1ccc(Cl)cc1Cl [Compound 11, 2,4-Dichloro-N-(5-chloro-6-(4-(piperazin-1-yl)phenoxy)pyridin-3-yl)benzene sulfonamide]			Inhibition of food intake (lean C57Bl6/J mice): effective in inhibiting food intake
CC(=O)N1CCN(c2ccc(Oc3ncc(NC(=O)CCC(=O)O)cc3Cl)cc2)CC1 [Compound 14, 4-(6-(4-(4-Acetylpiperazin-1-yl)phenoxy)-5-chloropyridin-3-ylamino)-4-oxobutanoic acid]	27.5%	1.49 ± 0.05	Normalization with control (plasma glucose reduction) ([2]; 100 mpk bid): Inactive
O=S(=O)(Nc1cnc(Oc2ccccc2-c2nc3ccccc3s2)c(Cl)c1)c1ccc(Cl)cc1Cl [Compound 15, N-(6-(2-(Benzo[d]thiazol-2-yl)phenoxy)-5-chloropyridin-3-yl)-2,4-dichlorobenzene-sulfonamide]	36.7%	2.0 ± 0.13	
CN(CCOc1ccc(CC2SC(=O)NC2=O)cc1)c1ccccn1 (stereo not shown) [Rosiglitazone, reference compound]			Normalization with control (plasma glucose reduction) ([2]; Rosiglitazone 5 mpk bid): 55.73 ± 4.46 and 53.34 ± 4.11
